We go through four molecules from article doi:10.1101/2024.08.12.607575v1 (bioRxiv, 2024).

Bridge positions count the residues as written; N and C are the ends. Peptide text beside a SMILES is read from it.

For one series, the system named is CD206. The conditions noted are these: recognition moiety for CD206; cited from earlier work.
For series [1], the system named is mouse bone marrow-derived macrophages (BMDMs). The series can be described thus: Phagocytosis assay. It is filed as cell-based. As to conditions: 10 µM 4 h, washed, 48 h follow-up, relative to MACTIDE and untreated.
A further series concerns the target T1, human recombinant CD206 (Homo sapiens, UniProt P22897).
T1 sequence (P22897 19-1456): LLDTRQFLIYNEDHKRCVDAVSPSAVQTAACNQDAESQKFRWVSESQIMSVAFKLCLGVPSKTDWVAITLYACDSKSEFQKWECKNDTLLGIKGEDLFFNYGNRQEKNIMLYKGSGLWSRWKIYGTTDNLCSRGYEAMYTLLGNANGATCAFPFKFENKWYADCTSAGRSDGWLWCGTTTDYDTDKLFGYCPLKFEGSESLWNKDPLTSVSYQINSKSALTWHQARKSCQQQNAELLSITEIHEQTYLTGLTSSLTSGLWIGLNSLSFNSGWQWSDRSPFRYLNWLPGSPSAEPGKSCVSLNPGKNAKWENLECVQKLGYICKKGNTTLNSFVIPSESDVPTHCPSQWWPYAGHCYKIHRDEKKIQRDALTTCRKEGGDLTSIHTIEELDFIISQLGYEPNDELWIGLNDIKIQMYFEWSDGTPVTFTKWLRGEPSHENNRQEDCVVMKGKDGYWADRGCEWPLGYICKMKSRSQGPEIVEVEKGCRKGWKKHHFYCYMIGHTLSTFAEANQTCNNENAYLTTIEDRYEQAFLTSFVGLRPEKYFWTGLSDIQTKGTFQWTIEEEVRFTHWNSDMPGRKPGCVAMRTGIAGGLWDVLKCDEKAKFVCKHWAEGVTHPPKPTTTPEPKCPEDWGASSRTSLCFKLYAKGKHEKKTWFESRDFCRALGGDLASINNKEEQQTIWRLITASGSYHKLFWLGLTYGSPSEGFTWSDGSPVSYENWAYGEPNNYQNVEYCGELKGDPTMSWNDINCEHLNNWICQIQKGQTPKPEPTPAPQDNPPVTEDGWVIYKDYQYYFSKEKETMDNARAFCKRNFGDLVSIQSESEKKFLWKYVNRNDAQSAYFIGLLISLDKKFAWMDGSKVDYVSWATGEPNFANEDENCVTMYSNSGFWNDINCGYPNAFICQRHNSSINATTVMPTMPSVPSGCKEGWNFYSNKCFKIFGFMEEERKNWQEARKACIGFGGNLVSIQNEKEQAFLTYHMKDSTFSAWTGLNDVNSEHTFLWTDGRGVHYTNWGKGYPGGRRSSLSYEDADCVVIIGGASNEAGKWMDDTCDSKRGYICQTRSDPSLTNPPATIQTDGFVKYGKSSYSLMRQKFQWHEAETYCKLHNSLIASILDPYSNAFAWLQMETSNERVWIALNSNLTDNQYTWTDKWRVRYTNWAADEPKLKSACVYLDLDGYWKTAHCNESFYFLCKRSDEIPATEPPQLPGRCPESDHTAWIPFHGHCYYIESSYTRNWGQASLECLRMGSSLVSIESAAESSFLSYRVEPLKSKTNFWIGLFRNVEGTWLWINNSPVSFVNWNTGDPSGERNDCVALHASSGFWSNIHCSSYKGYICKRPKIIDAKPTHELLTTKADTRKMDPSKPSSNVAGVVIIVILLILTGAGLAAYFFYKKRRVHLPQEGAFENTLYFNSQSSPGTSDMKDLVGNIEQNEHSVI
The series can be described thus: Quartz Crystal Microbalance. It is filed as binding. The conditions noted are these: QCM, PAH/CD206 multilayer.

A further series relates to orthotopic 4T1 tumors. The series can be described thus: In vivo photodynamic therapy / treatment in orthotopic 4T1. Set-up: species or system mouse. As to conditions: 30 nmoles i.p., no irradiation, compared with irradiated MACTIDE-V.
In the next series the test system is orthotopic 4T1.2 tumors. The series can be described thus: MACTIDE-V monotherapy in orthotopic 4T1.2. Format: in vivo, mouse. As to conditions: for CD8+ T cell density (mIHC): n=6 mice/group.
Series [2] has as its system mouse bone marrow-derived macrophages (BMDMs). The series can be described thus: Flow cytometry of BMDM markers. It is filed as cell-based. The conditions noted are these: Balb/C BMDMs, 48 h after treatment, not statistically significant. For orientation: A flow cytometer gives signals particle by particle.
The mark [3] stands for this setting: tumor cell suspensions, n=4 per group.

On to `OC[C@H]1OC(O)[C@@H](O)[C@@H](O)[C@@H]1O` (stereo partly drawn) [mannose], for which the affinity of mannose entry in the series on CD206 is “low millimolar range”.

For `CC[C@H](C)[C@@H]1NC(=O)[C@@H]2CCCN2C(=O)[C@@H]2CCCN2C(=O)[C@H]([C@@H](C)CC)NC(=O)[C@H](CO)NC(=O)[C@H](CCCCN)NC(=O)[C@H]([C@@H](C)O)NC(=O)[C@@H](NC(=O)CN)CSSC[C@@H](C(=O)N[C@@H](CO)C(=O)N2CCC[C@H]2C(=O)NCC(=O)N[C@@H](C)C(=O)N[C@@H](CCCCN)C(=O)O)NC1=O` [MACTIDE] (H-GCTKSIPPICSPGAK-OH; disulfide 2-10), the “phagocytosis of fluorescent E. coli particles” value in series [1] is “no effects”. Besides, the “dissociation upon washing with PBS” value on human recombinant CD206 was “incompletely and slowly dissociated”.

Consider “Vert-Ahx-G(CTKSIPPIC)SPGAK-OH (disulfide) [MACTIDE-V]”, for which the “body weight, non-irradiated (-)” value with orthotopic 4T1 tumors is listed as “less effect on body weight”. Moreover, the “CD8+ T cell density (mIHC)” value in the series on orthotopic 4T1.2 tumors is reported as “trend of increased CD8^+ T cell density”. In the series on orthotopic 4T1.2 tumors (setting [3]), the “percentage of CD206+ cells in tumor (flow cytometry)” value was “did not reduce” and the “polymorphonuclear (PMN) or TAM/monocyte cell populations (flow cytometry)” value is on record as “no effects”. Also, the “viability and differentiation of BMDMs” value in series [2] is on record as “slightly affected”.

For “Vert-Ahx-AKPCGS-OH [CtrlPep-V, reference compound]”, the “CD8+ T cell density (mIHC)” value with orthotopic 4T1.2 tumors is given as “trend of increased CD8^+ T cell density”.
